Assay results as given in PubChem BioAssay AID2060505 (Molecular Pharmacology Branch, DTP, NCI, 2025).

Tested on: 633275-114-R-J1-PDC complex spheroids, viability
Test: Anticancer human tumor 633275-114-R-J1-PDC patient-derived endometrial adenocarcinoma cell line growth inhibition [GQUAD]
Conditions: for IC50: curve of first compound; for viability, T/C: stronger effect = lower value
Summary of the method: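 Tumor cells were grown as complex spheroids with HUVEC endothelial cells and mesenchymal stem cells as stroma. G-quadruplex stabilizers were combined with targeted agents over half-log dilutions from near the clinical Cmax, or from 10 microM.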

[1] = second compound 0.0316 µM, first compound 0.0316 µM
[2] = second compound 0.0316 µM, first compound 0.316 µM
[3] = second compound 0.1 µM, first compound 0.0316 µM
[4] = second compound 0.1 µM, first compound 0.316 µM
[5] = second compound 0.316 µM, first compound 0.0316 µM
[6] = second compound 0.316 µM, first compound 0.316 µM
[7] = second compound 1 µM, first compound 0.0316 µM
[8] = second compound 1 µM, first compound 0.316 µM
[9] = second compound 3.16 µM, first compound 0.0316 µM
[10] = second compound 3.16 µM, first compound 0.316 µM
[11] = second compound 10 µM, first compound 0.0316 µM
[12] = second compound 10 µM, first compound 0.316 µM
[13] = second compound 0.0316 µM, first compound 0.1 µM
[14] = second compound 0.0316 µM, first compound 1 µM
[15] = second compound 0.0316 µM, first compound 3.16 µM
[16] = second compound 0.0316 µM, first compound 10 µM
[17] = second compound 0.1 µM, first compound 0.1 µM
[18] = second compound 0.1 µM, first compound 1 µM
[19] = second compound 0.1 µM, first compound 3.16 µM
[20] = second compound 0.1 µM, first compound 10 µM
[21] = second compound 0.316 µM, first compound 0.1 µM
[22] = second compound 0.316 µM, first compound 1 µM
[23] = second compound 0.316 µM, first compound 3.16 µM
[24] = second compound 0.316 µM, first compound 10 µM
[25] = second compound 1 µM, first compound 0.1 µM
[26] = second compound 1 µM, first compound 1 µM
[27] = second compound 1 µM, first compound 3.16 µM
[28] = second compound 1 µM, first compound 10 µM
[29] = second compound 3.16 µM, first compound 0.1 µM
[30] = second compound 3.16 µM, first compound 1 µM
[31] = second compound 3.16 µM, first compound 3.16 µM
[32] = second compound 3.16 µM, first compound 10 µM
[33] = second compound 10 µM, first compound 0.1 µM
[34] = second compound 10 µM, first compound 1 µM
[35] = second compound 10 µM, first compound 3.16 µM
[36] = second compound 10 µM, first compound 10 µM
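Also: spheroids exposed to the agents for seven days.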
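For viability, T/C in this document: percent of DMSO vehicle control viability which is 100%.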

CC[C@@]1(O)C(=O)OCc2c1cc1n(c2=O)Cc2cc3c(CN(C)C)c(O)ccc3nc2-1 + CN(C)c1ccc(Nc2c3ccc(NC(=O)CCN4CCCC4)cc3nc3cc(NC(=O)CCN4CCCC4)ccc23)cc1 was tested, and the IC50 (second compound 0.0316 µM) was 71.5 nM, the IC50 (second compound 0.1 µM) was 73 nM and the IC50 (second compound 0.316 µM) was 81.2 nM. It also gave an IC50 (second compound 1 µM) of 58.2 nM, an IC50 (second compound 3.16 µM) of 48.3 nM and an IC50 (second compound 10 µM) of less than 0.999 nM. For the same molecule, the viability, T/C (second compound 0.0316 µM, first compound 0.000999 µM) was 96.1%, the viability, T/C (second compound 0.0316 µM, first compound 0.00316 µM) was 105% and the viability, T/C (second compound 0.0316 µM, first compound 0.00999 µM) was 98.3%. The viability, T/C [1] was 75.2%, the viability, T/C (second compound 0.0316 µM, first compound 0.0999 µM) was 39.7% and the viability, T/C [2] was 35.9%. It also gave a viability, T/C (second compound 0.1 µM, first compound 0.000999 µM) of 93.4%, a viability, T/C (second compound 0.1 µM, first compound 0.00316 µM) of 101% and a viability, T/C (second compound 0.1 µM, first compound 0.00999 µM) of 99%. The viability, T/C [3] was 74.1%, the viability, T/C (second compound 0.1 µM, first compound 0.0999 µM) was 42% and the viability, T/C [4] was 36%. It also gave a viability, T/C (second compound 0.316 µM, first compound 0.000999 µM) of 101%, a viability, T/C (second compound 0.316 µM, first compound 0.00316 µM) of 104% and a viability, T/C (second compound 0.316 µM, first compound 0.00999 µM) of 85.5%. For the same molecule, the viability, T/C [5] was 72.9%, the viability, T/C (second compound 0.316 µM, first compound 0.0999 µM) was 42.6% and the viability, T/C [6] was 36.3%. It also gave a viability, T/C (second compound 1 µM, first compound 0.000999 µM) of 98%, a viability, T/C (second compound 1 µM, first compound 0.00316 µM) of 88.6% and a viability, T/C (second compound 1 µM, first compound 0.00999 µM) of 91.2%. It also gave a viability, T/C [7] of 64.8%, a viability, T/C (second compound 1 µM, first compound 0.0999 µM) of 36.7% and a viability, T/C [8] of 35%. For the same molecule, the viability, T/C (second compound 3.16 µM, first compound 0.000999 µM) was 82.3%, the viability, T/C (second compound 3.16 µM, first compound 0.00316 µM) was 82% and the viability, T/C (second compound 3.16 µM, first compound 0.00999 µM) was 80.7%. It also gave a viability, T/C [9] of 54%, a viability, T/C (second compound 3.16 µM, first compound 0.0999 µM) of 40.6% and a viability, T/C [10] of 27%. It also gave a viability, T/C (second compound 10 µM, first compound 0.000999 µM) of 35.2%, a viability, T/C (second compound 10 µM, first compound 0.00316 µM) of 41.3% and a viability, T/C (second compound 10 µM, first compound 0.00999 µM) of 28.8%. The viability, T/C [11] was 26.5%, the viability, T/C (second compound 10 µM, first compound 0.0999 µM) was 15.3% and the viability, T/C [12] was 13.7%.

In the case of O=c1[nH]cc(F)c(=O)[nH]1 + Cc1[nH]c2ccc(F)cc2c1-c1nc2c3cccnc3c3ncccc3c2[nH]1, the IC50 (second compound 0.0316 µM) is reported as greater than 10000 nM, the IC50 (second compound 0.1 µM) is reported as greater than 10000 nM and the IC50 (second compound 0.316 µM) is reported as greater than 10000 nM. For the same molecule, the IC50 (second compound 1 µM) was greater than 10000 nM, the IC50 (second compound 3.16 µM) was greater than 10000 nM and the IC50 (second compound 10 µM) was greater than 10000 nM. It also gave a viability, T/C [1] of 97.7%, a viability, T/C [13] of 107% and a viability, T/C [2] of 107%. It also gave a viability, T/C [14] of 95.4%, a viability, T/C [15] of 86% and a viability, T/C [16] of 71.8%. The viability, T/C [3] was 108%, the viability, T/C [17] was 89.7% and the viability, T/C [4] was 96.4%. The viability, T/C [18] was 98.8%, the viability, T/C [19] was 91.4% and the viability, T/C [20] was 70.6%. The viability, T/C [5] was 95.2%, the viability, T/C [21] was 95.6% and the viability, T/C [6] was 94%. For the same molecule, the viability, T/C [22] was 90.6%, the viability, T/C [23] was 93.4% and the viability, T/C [24] was 71.4%. For the same molecule, the viability, T/C [7] was 91.3%, the viability, T/C [25] was 101% and the viability, T/C [8] was 90.6%. It also gave a viability, T/C [26] of 88.4%, a viability, T/C [27] of 84.5% and a viability, T/C [28] of 73.3%. It also gave a viability, T/C [9] of 77.1%, a viability, T/C [29] of 71.7% and a viability, T/C [10] of 75.5%. The viability, T/C [30] was 73.2%, the viability, T/C [31] was 71.2% and the viability, T/C [32] was 56.9%. For the same molecule, the viability, T/C [11] was 70.5%, the viability, T/C [33] was 73% and the viability, T/C [12] was 71.9%. For the same molecule, the viability, T/C [34] was 73%, the viability, T/C [35] was 71.8% and the viability, T/C [36] was 55.9%.

Work on Nc1ccn(C2OC(CO)C(O)C2(F)F)c(=O)n1 (stereo not drawn) + Cc1[nH]c2ccc(F)cc2c1-c1nc2c3cccnc3c3ncccc3c2[nH]1 yielded an IC50 (second compound 0.0316 µM) of less than 31.6 nM, an IC50 (second compound 0.1 µM) of less than 31.6 nM and an IC50 (second compound 0.316 µM) of less than 31.6 nM. For the same molecule, the IC50 (second compound 1 µM) was less than 31.6 nM, the IC50 (second compound 3.16 µM) was less than 31.6 nM and the IC50 (second compound 10 µM) was less than 31.6 nM. It also gave a viability, T/C [1] of 29.7%, a viability, T/C [13] of 25.6% and a viability, T/C [2] of 25.9%. For the same molecule, the viability, T/C [14] was 26.4%, the viability, T/C [15] was 22.9% and the viability, T/C [16] was 24.4%. The viability, T/C [3] was 33.2%, the viability, T/C [17] was 24.3% and the viability, T/C [4] was 26.4%. It also gave a viability, T/C [18] of 27.3%, a viability, T/C [19] of 24.8% and a viability, T/C [20] of 20.9%. For the same molecule, the viability, T/C [5] was 31.2%, the viability, T/C [21] was 28.8% and the viability, T/C [6] was 26.1%. It also gave a viability, T/C [22] of 24.2%, a viability, T/C [23] of 27.1% and a viability, T/C [24] of 19.9%. For the same molecule, the viability, T/C [7] was 30.9%, the viability, T/C [25] was 25.6% and the viability, T/C [8] was 26%. The viability, T/C [26] was 25.9%, the viability, T/C [27] was 24% and the viability, T/C [28] was 20.1%. For the same molecule, the viability, T/C [9] was 26.1%, the viability, T/C [29] was 24.4% and the viability, T/C [10] was 22.6%. It also gave a viability, T/C [30] of 23.4%, a viability, T/C [31] of 25.7% and a viability, T/C [32] of 17.9%. It also gave a viability, T/C [11] of 26.8%, a viability, T/C [33] of 24.5% and a viability, T/C [12] of 23.8%. It also gave a viability, T/C [34] of 24.1%, a viability, T/C [35] of 22.5% and a viability, T/C [36] of 18.8%.

Molecule C=CC(=O)N1CCN(c2nc(=O)n(-c3c(C)ccnc3C(C)C)c3nc(-c4c(O)cccc4F)c(F)cc23)C(C)C1 (stereo not drawn) + CN(C)c1ccc(Nc2c3ccc(NC(=O)CCN4CCCC4)cc3nc3cc(NC(=O)CCN4CCCC4)ccc23)cc1 has an IC50 (second compound 0.0316 µM) greater than 10000 nM, an IC50 (second compound 0.1 µM) greater than 10000 nM and an IC50 (second compound 0.316 µM) greater than 10000 nM. The IC50 (second compound 1 µM) was greater than 10000 nM, the IC50 (second compound 3.16 µM) was greater than 10000 nM and the IC50 (second compound 10 µM) was less than 31.6 nM. For the same molecule, the viability, T/C [1] was 109%, the viability, T/C [13] was 88% and the viability, T/C [2] was 94.9%. It also gave a viability, T/C [14] of 92.5%, a viability, T/C [15] of 106% and a viability, T/C [16] of 81.8%. The viability, T/C [3] was 98.1%, the viability, T/C [17] was 92% and the viability, T/C [4] was 97.7%. For the same molecule, the viability, T/C [18] was 92.6%, the viability, T/C [19] was 97.2% and the viability, T/C [20] was 76%. The viability, T/C [5] was 92.8%, the viability, T/C [21] was 95.4% and the viability, T/C [6] was 110%. It also gave a viability, T/C [22] of 110%, a viability, T/C [23] of 98.9% and a viability, T/C [24] of 76%. The viability, T/C [7] was 95.5%, the viability, T/C [25] was 88.6% and the viability, T/C [8] was 100%. For the same molecule, the viability, T/C [26] was 97.5%, the viability, T/C [27] was 104% and the viability, T/C [28] was 65.2%. The viability, T/C [9] was 84.2%, the viability, T/C [29] was 85.1% and the viability, T/C [10] was 92.1%. The viability, T/C [30] was 84.5%, the viability, T/C [31] was 78.1% and the viability, T/C [32] was 51.3%. It also gave a viability, T/C [11] of 34.3%, a viability, T/C [33] of 34.3% and a viability, T/C [12] of 35.2%. For the same molecule, the viability, T/C [34] was 41%, the viability, T/C [35] was 37.3% and the viability, T/C [36] was 15.4%.
